According to ChEMBL document CHEMBL3608207, “Synthesis, characterization, evaluation and molecular dynamics studies of 5, 6-diphenyl-1,2,4-triazin-3(2H)-one derivatives bearing 5-substituted 1,3,4-oxadiazole as potential anti-inflammatory and analgesic agents” (Eur J Med Chem, 2015):

Experiments:
[1] = Retardation factor of the compound; assay type: physicochemical
[2] = Octanol/water partition coefficient, log P of the compound by shake flask method; assay type: physicochemical
[3] = In-vitro anti-inflammatory activity assessed as inhibition of denaturation of bovine serum albumin at equimolar dose relative to 10 mg indomethacin; assay type: functional
[4] = system: Rattus norvegicus; assay: Anti-inflammatory activity in rat assessed as inhibition of arachidonic acid-induced paw edema at 10 mg/kg, po dosed 30 mins before arachidonic acid injection and measured 1 hr after arachidonic acid injection; assay type: functional
[5] = system: Rattus norvegicus; assay: Anti-inflammatory activity in rat model of acute inflammation assessed as inhibition of carrageenan-induced paw oedema dosed at equimolar oral dose relative to 10 mg/kg, po indomethacin dosed 1 hr before carrageenan injection and measured 2 hrs after carrageenan injection; assay type: functional
[6] = system: Rattus norvegicus; assay: Anti-inflammatory activity in rat model of acute inflammation assessed as inhibition of carrageenan-induced paw oedema dosed at equimolar oral dose relative to 10 mg/kg, po indomethacin dosed 1 hr before carrageenan injection and measured 3 hrs after carrageenan injection; assay type: functional
[7] = system: Rattus norvegicus; assay: Anti-inflammatory activity in rat model of acute inflammation assessed as inhibition of carrageenan-induced paw oedema dosed at equimolar oral dose relative to 10 mg/kg, po indomethacin dosed 1 hr before carrageenan injection and measured 4 hrs after carrageenan injection; assay type: functional
[8] = system: Rattus norvegicus; assay: Anti-inflammatory activity in rat model of acute inflammation assessed as inhibition of carrageenan-induced paw oedema dosed at equimolar oral dose relative to 10 mg/kg, po indomethacin dosed 1 hr before carrageenan injection and measured 5 hrs after carrageenan injection; assay type: functional
[9] = system: Rattus norvegicus; assay: Anti-inflammatory activity in rat model of acute inflammation assessed as inhibition of carrageenan-induced paw oedema dosed at equimolar oral dose relative to 10 mg/kg, po indomethacin dosed 1 hr before carrageenan injection and measured 6 hrs after carrageenan injection; assay type: functional
[10] = system: Rattus norvegicus; assay: Anti-inflammatory activity in rat model of acute inflammation assessed as inhibition of carrageenan-induced paw oedema dosed at equimolar oral dose relative to 10 mg/kg, po indomethacin dosed 1 hr before carrageenan injection and measured 5 hrs after carrageenan injection relative to 10 mg/kg, po indomethacin; assay type: functional
[11] = system: Rattus norvegicus; assay: Toxicity in healthy albino rat assessed as induction of changes in autonomic or behavioural responses up to 500 mg/kg, po; assay type: organism-based; settings: in vivo
[12] = system: Rattus norvegicus; assay: Toxicity in healthy albino rat assessed as induction of tremors up to 500 mg/kg, po; assay type: organism-based; settings: in vivo
[13] = system: Rattus norvegicus; assay: Toxicity in healthy albino rat assessed as induction of convulsion up to 500 mg/kg, po; assay type: organism-based; settings: in vivo
[14] = system: Rattus norvegicus; assay: Toxicity in healthy albino rat assessed as induction of salivation up to 500 mg/kg, po; assay type: organism-based; settings: in vivo
[15] = system: Rattus norvegicus; assay: Toxicity in healthy albino rat assessed as induction of diarrhoea up to 500 mg/kg, po; assay type: organism-based; settings: in vivo
[16] = system: Rattus norvegicus; assay: Toxicity in healthy albino rat assessed as induction of lethargy up to 500 mg/kg, po; assay type: organism-based; settings: in vivo
[17] = system: Rattus norvegicus; assay: Toxicity in healthy albino rat assessed as induction of sleep up to 500 mg/kg, po; assay type: organism-based; settings: in vivo
[18] = system: Rattus norvegicus; assay: Toxicity in healthy albino rat assessed as induction of coma up to 500 mg/kg, po; assay type: organism-based; settings: in vivo
[19] = system: Rattus norvegicus; assay: Toxicity in healthy albino rat assessed as induction of mortality at 500 mg/kg, po measured after 14 days; assay type: organism-based; settings: in vivo, 336 h
[20] = system: Rattus norvegicus; assay: Anti-inflammatory activity in rat model of acute inflammation assessed as inhibition of carrageenan-induced paw oedema dosed at equimolar oral dose relative to 10 mg/kg, po indomethacin dosed 1 hr before carrageenan injection and measured 1 hr after carrageenan injection; assay type: functional
[21] = system: Mus musculus; assay: Analgesic activity in Swiss albino mouse assessed as reduction in formalin-induced paw licking by measuring time spent on licking during phase-1 at 10 mg/kg, po dosed 1 hr before formalin challenge and measured 30 mins after formalin injection; assay type: functional
[22] = system: Mus musculus; assay: Analgesic activity in Swiss albino mouse assessed as reduction in formalin-induced paw licking by measuring time spent on licking during phase-2 at 10 mg/kg, po dosed 1 hr before formalin challenge and measured 30 mins after formalin injection; assay type: functional

## N#Cc1cccc(-c2nnc(Cn3nc(-c4ccccc4)c(-c4ccccc4)nc3=O)o2)c1
[1]
  Rf: 0.45
[2]
  logP: 3.74
[3]
  inhibition: 62.3%

## CC(c1cc2ccccc2s1)N(O)C(N)=O (centres undefined) [ZILEUTON]
[4]
  inhibition in vivo at 10 mg/kg: 67.4%

## O=c1nc(-c2ccccc2)c(-c2ccccc2)nn1Cc1nnc(-c2ccncc2)o1
[1]
  Rf: 0.43
[2]
  logP: 3.67
[3]
  inhibition: 47.9%

## Cc1ccccc1-c1nnc(Cn2nc(-c3ccccc3)c(-c3ccccc3)nc2=O)o1
[1]
  Rf: 0.36
[2]
  logP: 3.81
[3]
  inhibition: 53.7%

## O=c1nc(-c2ccccc2)c(-c2ccccc2)nn1Cc1nnc(-c2ccc(Cl)cc2Cl)o1
[5]
  inhibition (INH): 28.44%
[6]
  inhibition (INH): 31.23%
[7]
  inhibition (INH): 34.8%
[8]
  inhibition (INH): 38.31%
[9]
  inhibition (INH): 35.42%
[10]
  inhibition (INH): 61.16%
[1]
  Rf: 0.51
[2]
  logP: 4.45
[3]
  inhibition: 67.7%
[11]
  Activity: Non-toxic
[12]
  Activity: Non-toxic
[13]
  Activity: Non-toxic
[14]
  Activity: Non-toxic
[15]
  Activity: Non-toxic
[16]
  Activity: Non-toxic
[17]
  Activity: Non-toxic
[18]
  Activity: Non-toxic
[19]
  Activity: Non-toxic
[20]
  inhibition (INH): 12.01%

## CC(C)=CCN1CC[C@]2(C)c3cc(O)ccc3C[C@H]1[C@H]2C [(+)-PENTAZOCINE]
[21]
  inhibition in vivo at 10 mg/kg: 88.9%
[22]
  inhibition in vivo at 10 mg/kg: 90.2%

## O=c1nc(-c2ccccc2)c(-c2ccccc2)nn1Cc1nnc(-c2ccccc2[N+](=O)[O-])o1
[5]
  inhibition (INH): 30.7%
[6]
  inhibition (INH): 36.39%
[7]
  inhibition (INH): 38.75%
[8]
  inhibition (INH): 41.29%
[9]
  inhibition (INH): 39%
[10]
  inhibition (INH): 65.92%
[1]
  Rf: 0.35
[2]
  logP: 3.64
[3]
  inhibition: 70.1%
[11]
  Activity: Non-toxic
[12]
  Activity: Non-toxic
[13]
  Activity: Non-toxic
[14]
  Activity: Non-toxic
[15]
  Activity: Non-toxic
[16]
  Activity: Non-toxic
[17]
  Activity: Non-toxic
[18]
  Activity: Non-toxic
[19]
  Activity: Non-toxic
[20]
  inhibition (INH): 12.12%

## CCOC(=O)Cn1nc(-c2ccccc2)c(-c2ccccc2)nc1=O
[3]
  inhibition: 35.7%

## O=c1nc(-c2ccccc2)c(-c2ccccc2)nn1Cc1nnc(-c2cccc(Cl)c2)o1
[1]
  Rf: 0.45
[2]
  logP: 3.82
[3]
  inhibition: 64.4%

## NNC(=O)Cn1nc(-c2ccccc2)c(-c2ccccc2)nc1=O
[3]
  inhibition: 38.3%

## Oc1nnc(-c2ccccc2)c(-c2ccccc2)n1
[3]
  inhibition: 30.7%

## O=c1nc(-c2ccccc2)c(-c2ccccc2)nn1Cc1nnc(Oc2ccc(Cl)cc2Cl)o1
[5]
  inhibition (INH): 34.87%
[6]
  inhibition (INH): 42.02%
[7]
  inhibition (INH): 45.24%
[8]
  inhibition (INH): 47.14%
[9]
  inhibition (INH): 44.89%
[10]
  inhibition (INH): 75.25%
[1]
  Rf: 0.47
[2]
  logP: 4.4
[3]
  inhibition: 72.7%
[11]
  Activity: Non-toxic
[12]
  Activity: Non-toxic
[13]
  Activity: Non-toxic
[14]
  Activity: Non-toxic
[15]
  Activity: Non-toxic
[16]
  Activity: Non-toxic
[17]
  Activity: Non-toxic
[18]
  Activity: Non-toxic
[19]
  Activity: Non-toxic
[20]
  inhibition (INH): 15.59%

## COc1cccc(-c2nnc(Cn3nc(-c4ccccc4)c(-c4ccccc4)nc3=O)o2)c1
[1]
  Rf: 0.38
[2]
  logP: 3.47
[3]
  inhibition: 62.7%

## Cc1ccc(-c2nnc(Cn3nc(-c4ccccc4)c(-c4ccccc4)nc3=O)o2)cc1
[1]
  Rf: 0.34
[2]
  logP: 3.73
[3]
  inhibition: 50.3%

## O=c1nc(-c2ccccc2)c(-c2ccccc2)nn1Cc1nnc(-c2ccccc2)o1
[1]
  Rf: 0.4
[2]
  logP: 3.54
[3]
  inhibition: 50.3%
